Experimental data taken from PMC7163917 (European journal of medicinal chemistry, 2020).
Like-named read-outs stand apart in the source and are kept apart here.

What was measured:
[1] = target: STEP F523A mutant (Homo sapiens, UniProt P54829, F547A)
[2] = test system: phosphorylation of Pyk2 in PC12 cells; test: NGF-induced phosphorylation of Pyk2 in PC12 cells; type: cell-based; details: 20 μM inhibitor, NGF 5 min
[3] = target: T1, STEP (Homo sapiens, UniProt P54829); test: Ki measurement and Lineweaver-Burk kinetic analysis of STEP inhibition; type: biochemical; details: pNPP, pH 6.0, 30 °C
T1 sequence (P54829 300-555 limits assumed): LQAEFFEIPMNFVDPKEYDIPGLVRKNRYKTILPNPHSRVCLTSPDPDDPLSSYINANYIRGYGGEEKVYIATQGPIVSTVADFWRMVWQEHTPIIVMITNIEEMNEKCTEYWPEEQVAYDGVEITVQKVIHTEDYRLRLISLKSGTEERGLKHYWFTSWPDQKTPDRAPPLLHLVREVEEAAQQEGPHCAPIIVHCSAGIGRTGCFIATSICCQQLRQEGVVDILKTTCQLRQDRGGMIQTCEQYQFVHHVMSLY

[4] = test system: phosphorylation of ERK1/2 in PC12 cells; test: NGF-induced phosphorylation of ERK1/2 in PC12 cells; type: cell-based; details: 20 μM inhibitor, NGF 5 min
[5] = target: T1, STEP; test: STEP-catalyzed pNPP hydrolysis inhibition; type: biochemical; details: ST3 analogs, removal of carboxyl and hydroxyl group

Chain of STEP F523A mutant (P54829 282-563 F547A): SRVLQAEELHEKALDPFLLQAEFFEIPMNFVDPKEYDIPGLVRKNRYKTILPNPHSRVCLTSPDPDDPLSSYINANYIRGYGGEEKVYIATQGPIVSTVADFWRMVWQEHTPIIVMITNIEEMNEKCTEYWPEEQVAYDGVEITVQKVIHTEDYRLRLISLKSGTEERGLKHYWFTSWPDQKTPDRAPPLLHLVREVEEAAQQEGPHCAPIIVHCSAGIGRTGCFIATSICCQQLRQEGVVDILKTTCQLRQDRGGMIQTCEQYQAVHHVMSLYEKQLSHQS

Structure (SMILES)	inhibitory activity in STEP F523A mutant compared with wild type [1]	effect on NGF-induced phosphorylation of Pyk2 [2]	inhibition pattern (Lineweaver-Burk plot) [3]	effect on NGF-induced phosphorylation of ERK1/2 [4]	effect of structural change on STEP inhibitory activity [5]	inhibitory activity in STEP F523A mutant compared with wild type ([1]; STEP F523A mutant)
O=C(O)c1cccc2c1NC(c1cccc(Br)c1)C1CC(Sc3ccccc3[N+](=O)[O-])C(Cl)C21 (centres unmarked) [ST2]	decreased	significantly increased	competitive	significantly increased	–	–
COC(=O)c1cccc(-c2ccc(/C=C3\Sc4ccccc4C3=O)o2)c1 [ST3–3]	–	–	–	–	significantly decreased	–
Cc1cc(-c2ccc(/C=C3\Sc4ccccc4C3=O)o2)ccc1Cl [ST3–1]	–	–	–	–	significantly decreased	–
O=C(O)c1cc(-c2ccc(/C=C3\Sc4ccccc4C3=O)o2)ccc1O [ST3]	–	significantly increased	competitive	significantly increased	–	–
O=C(O)c1cccc2c1NC(c1ccc(F)cc1)C1CC(Sc3ccccc3[N+](=O)[O-])C(Cl)C21 (centres unmarked) [ST2–5]	decreased	significantly increased	competitive	significantly increased	–	–
Cc1cc(C(=O)O)ccc1-c1ccc(C=C2C(=O)c3ccccc3C2=O)o1 [ST3–5]	–	significantly increased	competitive	significantly increased	–	decreased
